Results published in publication PMC6379104 (Clinical pharmacology and therapeutics, 2018).
“And” between values parts separate entries of the source, which are not always exact repeats. Identical values can stand only once. Like-named read-outs stand apart in the source and are kept apart here. Blank lines part the entries; values can stand above or below the molecule they belong to.

Legend:
[1] = tested on: cell-associated unspliced (CA-US) HIV RNA; conditions: three consecutive days of DSF at all doses (500, 1000, 2000 mg); cited from earlier work
[2] = tested on: latent HIV in Bcl-2-transduced primary CD4+ T cells; conditions: cited from earlier work
[3] = tested on: plasma HIV RNA; conditions: DSF 500 mg for 14 days; cited from earlier work
[4] = in humans; cited from earlier work
[5] = Population pharmacokinetic model of plasma disulfiram and four metabolites
[6] = tested on: cell-associated unspliced (CA-US) HIV RNA; assay type: in vivo, HIV-1
[7] = tested on: plasma HIV RNA; assay type: in vivo, HIV-1
[8] = tested on: plasma HIV RNA; conditions: three consecutive days of DSF; cited from earlier work
[9] = tested on: cell-associated HIV DNA; conditions: three consecutive days of DSF; cited from earlier work
[10] = clinical; conditions: human, in vivo
[11] = tested on: plasma HIV RNA; conditions: following administration of vorinostat; cited from earlier work
[12] = tested on: CA-US HIV RNA; conditions: following administration of vorinostat; cited from earlier work
[13] = final PK model, estimate (RSE %)
[14] = model estimate at AUC0–72 of 2270 mg*h/L (500 mg dose group median)

Compound: CCN(CC)C(=S)SSC(=S)N(CC)CC [DSF, Disulfiram]
change in CA-US RNA [1]: statistically significant dose-dependent increases
activation of latent HIV in vitro [2]: reactivated latent HIV
change in plasma HIV RNA [3]: transient but non-statistically significant increases
estimated half-life [4]: about 7 hours
time by which drug was completely eliminated ([5]; 3 consecutive daily doses): ≤ 72 h
BV (%) in CL/F (between-subject variability) [5, 13]: 36% and 36 (14) %
V (volume of distribution) [5, 13]: 1.29 (9.1) L
Vd ([5]; human, plasma, oral, V (volume of distribution), final PK model, estimate (RSE %)): 1.3 L
AUC50 ([6]; exposure-response of AUC0–72 on CA-US HIV RNA): 1600 µg·h/L
Emax ([6]; increase in CA-US HIV RNA): 78%
Emax (fraction increase) ([6]; increase in CA-US HIV-1 RNA, estimate (RSE %)): 78 (13.6)
potential participants achieving >90% of Emax [6, 14]: over 70%
potential participants achieving less than a third of Emax [6, 14]: 15%
potential participants achieving >98% of Emax ([6]; model estimate at AUC0–72 of 3883 mg*h/L (lowest in 1000 mg dose group)): 95%
exposure-response relationship of AUC0–72 on CA-US RNA ([6]; negative binomial PK/PD models, all three baseline values): statistically significant exposure-response relationship
median change in plasma HIV RNA ([7]; by day 31, 2000 mg group): 1.17 copies/mL
median change in plasma HIV RNA ([7]; during the treatment dosing period, 500 mg group): -0.22 copies/mL
exposure-response between AUC0–72 and plasma HIV RNA ([7]; negative binomial regression models): a statistically significant exposure-response was not observed
change in plasma HIV RNA [8]: increased, but only at day 31 and only in participants receiving the highest dose (2000 mg)
change in CA-DNA [9]: no significant differences
Km [10]: 0.217 µg/mL

Compound: CCN(CC)C(=S)S [M1, N,N-diethyldithiocarbamate]
activation of latent HIV in vitro [2]: reactivated latent HIV
Km (Michaelis-Menten constant, concentration at which elimination is half maximal) [5, 13]: 480 (6.2) ng/mL
V (volume of distribution) [5, 13]: 0.0906 (16.6) L

Compound: CCN(CC)C(=S)SC [M2, diethyldithiocarbamate-methyl ester]
activation of latent HIV in vitro [2]: but not M2 (DDTC-Me), reactivated latent HIV
Q (flow from central compartment to periphery) [5, 13]: 0.0776 (14.0)
V (volume of distribution) [5, 13]: 0.00404 (8.0) L
Vperiph (calculated peripheral volume) [5, 13]: 28.9 (17.3) L

V (volume of distribution) [5, 13]: 0.0647 (15.6) L
Compound: CCN(CC)C(=O)[S+](C)[O-] (stereo not drawn) [M3, S-methyl-N,N-diethylthiolcarbamate sulfoxide]

Compound: CCN(CC)C(=O)SC[C@H](NC(=O)CC[C@H](N)C(=O)O)C(=O)NCC(=O)O [M4, carbamathione]
Km (Michaelis-Menten constant, concentration at which elimination is half maximal) [5, 13]: 543 (4.3) ng/mL
V (volume of distribution) [5, 13]: 0.581 (10.3) L

Compound: O=C(CCCCCCC(=O)Nc1ccccc1)NO [vorinostat]
change in plasma HIV RNA [11]: a significant change in plasma HIV RNA was not observed
change in CA-US HIV RNA [12]: significant increases
